Measurements from paper PMC11301625, “Azobenzene-Based Photoswitchable Substrates for Advanced Mechanistic Studies of Model Haloalkane Dehalogenase Enzyme Family” (ACS Catalysis, 2024).
Read-outs that look alike come from different tables or passages of the source. Each block holds one molecule with its values, some of them ahead of it.

What was measured:
LinB [1] = target: T1, LinB (Sphingobium indicum, UniProt D4Z2G1); assay: stopped-flow tryptophan fluorescence after preincubation; assay type: biochemical; conditions: 100 mM glycine pH 8.6, 37 °C; slow irreversible inhibition, substrate E-3c
T1 construct: His-tagged, expressed in E. coli BL21(DE3), Ni-NTA purified; PDB 1MJ5 given for the docking model of the same protein
T1 sequence (D4Z2G1 2-296): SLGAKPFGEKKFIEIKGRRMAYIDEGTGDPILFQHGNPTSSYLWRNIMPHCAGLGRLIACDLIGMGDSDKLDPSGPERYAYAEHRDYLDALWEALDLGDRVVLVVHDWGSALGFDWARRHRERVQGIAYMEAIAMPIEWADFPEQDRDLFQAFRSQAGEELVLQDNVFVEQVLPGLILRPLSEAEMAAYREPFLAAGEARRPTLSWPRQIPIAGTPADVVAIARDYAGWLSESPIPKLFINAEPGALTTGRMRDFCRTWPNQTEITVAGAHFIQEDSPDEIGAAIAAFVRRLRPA

DmmA [2] = target: T2, DmmA (Lyngbya majuscula, UniProt Q6DND9); assay: ITC progress curves; assay type: biochemical
T2 construct: gene curN; His-tagged, expressed in E. coli BL21(DE3), Ni-NTA purified; PDB 3U1T for the docking model of the same protein
T2 sequence (Q6DND9 25-341): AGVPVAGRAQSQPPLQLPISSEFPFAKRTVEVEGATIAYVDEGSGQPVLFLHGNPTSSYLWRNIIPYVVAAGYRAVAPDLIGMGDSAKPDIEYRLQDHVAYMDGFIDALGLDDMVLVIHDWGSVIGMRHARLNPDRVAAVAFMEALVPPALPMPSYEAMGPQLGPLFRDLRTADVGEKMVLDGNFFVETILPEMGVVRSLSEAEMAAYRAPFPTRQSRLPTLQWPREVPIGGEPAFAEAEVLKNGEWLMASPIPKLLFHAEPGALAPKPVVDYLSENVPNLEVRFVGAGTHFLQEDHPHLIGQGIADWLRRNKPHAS
Text: ITC progress curves on DmmA | Z-isomer of substrate 3a binds to the enzyme’s active site and functions as a competitive inhibitor

DmmA [3] = target: T2, DmmA; assay: global fit of stopped-flow fluorescence/absorbance and ITC; assay type: biochemical; conditions: 100 mM glycine pH 8.6, 37 °C; enzyme-product complex after isomerization (EP2); read-out: K5
Text: global fit of stopped-flow fluorescence/absorbance and ITC on DmmA

LinB [4] = target: T1, LinB; assay: as above; assay type: biochemical; conditions: 100 mM glycine pH 8.6, 37 °C
Text: global fit of stopped-flow fluorescence/absorbance and ITC on LinB

ITC progress curves = substrate: C[N+](C)(C)Cc1ccc(/N=N/c2cccc(CCl)c2)cc1; assay: ITC progress curves; assay type: biochemical, Lyngbya majuscula; conditions: 100 mM glycine pH 8.6, 37 °C

Molecule: C[N+](C)(C)Cc1ccc(/N=N\c2cccc(CCl)c2)cc1 (mixture of isomers) [3c, Z-3c]
stopped-flow tryptophan fluorescence after preincubation (LinB [1]): the inhibition effect of Z-3c was significantly more prominent in the case of LinB

Ki (DmmA [2]): 0.035 ± 0.001 µM
Molecule: COCCOCCOc1ccc(/N=N\c2cccc(CCl)c2)cc1 [3a, Z-3a]

Kd (DmmA [3]): 3.55 ± 1.01 µM
Kd (LinB [4]; enzyme-product complex (EP), read-out: K4): 11.6 ± 0.1 µM
Molecule: C[N+](C)(C)Cc1ccc(/N=N/c2cccc(CO)c2)cc1 [3c, E-3c-OH]

Kd (LinB [4]; equilibrium dissociation constant of enzyme-substrate complex, read-out: K1): 7.39 ± 0.03 µM
Molecule: C[N+](C)(C)Cc1ccc(/N=N/c2cccc(CCl)c2)cc1 [3c, E-3c]

B1: DmmA (Lyngbya majuscula) (protein)
chain: AGVPVAGRAQSQPPLQLPISSEFPFAKRTVEVEGATIAYVDEGSGQPVLFLHGNPTSSYLWRNIIPYVVAAGYRAVAPDLIGMGDSAKPDIEYRLQDHVAYMDGFIDALGLDDMVLVIHDWGSVIGMRHARLNPDRVAAVAFMEALVPPALPMPSYEAMGPQLGPLFRDLRTADVGEKMVLDGNFFVETILPEMGVVRSLSEAEMAAYRAPFPTRQSRLPTLQWPREVPIGGEPAFAEAEVLKNGEWLMASPIPKLLFHAEPGALAPKPVVDYLSENVPNLEVRFVGAGTHFLQEDHPHLIGQGIADWLRRNKPHAS
notes: His-tagged, expressed in E. coli BL21(DE3), Ni-NTA purified; PDB 3U1T for the docking model of the same protein
Km (ITC progress curves): 850 ± 40 µM
kcat (ITC progress curves): 0.50 ± 0.03 s⁻¹
